Data set [1] has as its target T1, AT1 receptor (Homo sapiens, UniProt P30556).
T1 sequence (P30556 1-359): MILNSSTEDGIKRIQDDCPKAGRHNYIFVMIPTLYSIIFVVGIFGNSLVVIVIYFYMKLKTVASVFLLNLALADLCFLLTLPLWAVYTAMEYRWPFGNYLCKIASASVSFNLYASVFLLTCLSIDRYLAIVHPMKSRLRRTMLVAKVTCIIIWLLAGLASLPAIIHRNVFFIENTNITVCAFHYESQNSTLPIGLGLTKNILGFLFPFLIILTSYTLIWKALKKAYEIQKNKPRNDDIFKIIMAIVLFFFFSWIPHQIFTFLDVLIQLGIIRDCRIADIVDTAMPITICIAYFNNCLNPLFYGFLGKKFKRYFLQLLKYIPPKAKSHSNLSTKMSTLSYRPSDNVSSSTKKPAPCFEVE
As to conditions: cited from earlier work.

The conditions of data set [2]: aqueous media; compared with valsartan; cited from earlier work.
Data set [3] addresses T1, AT1 receptor. The data set is described as follows: IC50 / affinity to AT1 receptor (stated, not measured in the patent). It counts as binding. As to conditions: corresponding to the nM values; read-out: IC50 to AT1 receptor, as mass concentration (converted).
The subject of data set [4] is mouse mean blood pressure (MBP). The data set is described as follows: Liposomal valsartan activity on mice blood pressure (CODA monitor, tail). Format: in vivo. How it is done:
The development of liposomal ARB's aimed at delivering the drugs to the tumor and exert their activity there while avoiding the systemic effect of the drug on blood pressure. […] MBP was measured using CODA monitor device allowing measurement of blood pressure in mouse tail.
Four mice were tested before drug administration and 2, 24 and 48 h after drug administration. For each mouse, at least 3 measurements (and up to 10) were recorded for each time point.

“Also recorded” adds a separate entry of the source. Like-named read-outs stand apart in the source and are kept apart here.

Consider `CCOc1nc2cccc(C(=O)O)c2n1Cc1ccc(-c2ccccc2-c2nnn[nH]2)cc1` [Candesartan, 2-ethoxy-3-[[4-[2-(2H-tetrazol-5-yl)phenyl]phenyl]methyl]benzimidazole-4-carboxylic acid], for which the IC50 is 3 nM at AT1 receptor [1] and 2.95 nM on AT1 receptor [3]. Besides, the “affinity for AT1 receptor” value at AT1 receptor [1] (versus losartan, telmisartan, valsartan (Bhuiyan 2013)) is “highest affinity”. Also, the solubility result in data set [2] is listed as “very limited; also recorded: not soluble”.
With `CCCCC(=O)N(Cc1ccc(-c2ccccc2-c2nnn[nH]2)cc1)[C@H](C(=O)O)C(C)C` [Valsartan, (2S)-3-methyl-2-[pentanoyl-[[4-[2-(2H-tetrazol-5-yl)phenyl]phenyl]methyl]amino]butanoic acid], the “lowering of MBP” value in data set [4] (25 mg/kg, 2 h after administration) is listed as ~ 35 units. Besides, the “MBP at t=24 h” value in data set [4] (25 mg/kg, 24 h after administration) is recorded as “returned to baseline”. In addition, the “effect on MBP 2 h after injection” value in data set [4] (2 h after injection) was “reduction in MBP”. In data set [4] (reduction from 105 mmHg), this compound displayed an MBP after administration of 70 mmHg.

The values above are taken from patent US12714669B2, “Liposomal formulations comprising AT1 receptor blockers and uses thereof” (YISSUM RESEARCH DEVELOPMENT COMPANY OF THE HEBREW …, priority 2020, dated 2026).
